Key:
Assay type in all cases: in vivo
[1] = system: umbrella sedge (Cyperus difformis); experiment: Test B flooded paddy test plant response
Method in brief: (§1)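 Compounds were added directly to paddy water over 2-leaf-stage plants in pots flooded 3 cm above soil, water depth maintained. Visual injury scored against controls after 13 to 15 days in greenhouse, 0 (none) to 100 (complete control); dash indicates no result.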

[2] = system: ducksalad (Heteranthera limosa); experiment: Test B flooded paddy test plant response
Method in brief: as §1

[3] = system: rice (Oryza sativa); experiment: Test B flooded paddy test plant response
Method in brief: as §1

[4] = system: barnyardgrass (Echinochloa crus-galli); experiment: Test B flooded paddy test plant response
Method in brief: as §1

[5] = system: corn (Zea mays); experiment: Test A pre-/postemergence plant response
Text: (§2) Seeds of species selected from barnyardgrass (Echinochloa crus-galli), large crabgrass (Digitaria sanguinalis), giant foxtail (Setaria faberi), blackgrass (Alopecurus myosuroides), canarygrass (Phalaris minor), morningglory (Ipomoea coccinea), pigweed (Amaranthus retroflexus), velvetleaf (Abutilon theophrasti), wheat (Triticum aestivum), and corn (Zea mays) were planted into a blend of loam soil and sand and treated preemergence with a directed soil spray using test chemicals formulated in a non-phytotoxic solvent mixture which included a surfactant. At the same time these species were also treated with postemergence applications of test chemicals formulated in the same manner.
(§3) Plants ranged in height from 2 to 10 cm and were in the one- to two-leaf stage for the postemergence treatment. Treated plants and untreated controls were maintained in a greenhouse for approximately 10 days, after which time all treated plants were compared to untreated controls and visually evaluated for injury. Plant response ratings, summarized in Table A, are based on a 0 to 100 scale where 0 is no effect and 100 is complete control. A dash (-) response means no test results.

[6] = system: large crabgrass (Digitaria sanguinalis); experiment: Test A pre-/postemergence plant response
Text: as §2, §3

[7] = system: velvetleaf (Abutilon theophrasti); experiment: Test A pre-/postemergence plant response
Text: as §2, §3

[8] = system: pigweed (Amaranthus retroflexus); experiment: Test A pre-/postemergence plant response
Text: as §2, §3

[9] = system: barnyardgrass (Echinochloa crus-galli); experiment: Test A pre-/postemergence plant response
Text: as §2, §3

[10] = system: wheat (Triticum aestivum); experiment: Test A pre-/postemergence plant response
Text: as §2, §3

[11] = system: morningglory (Ipomoea coccinea); experiment: Test A pre-/postemergence plant response
Text: as §2, §3

[12] = system: giant foxtail (Setaria faberi); experiment: Test A pre-/postemergence plant response
Text: as §2, §3

[13] = system: canarygrass (Phalaris minor); experiment: Test A pre-/postemergence plant response
Text: as §2, §3

[14] = system: blackgrass (Alopecurus myosuroides); experiment: Test A pre-/postemergence plant response
Text: as §2, §3

[15] = Flood (flooded paddy test), 62 g ai/ha, scale 0 to 100, 0 no effect, 100 complete control
[16] = Flood (flooded paddy test), 125 g ai/ha, scale 0 to 100, 0 no effect, 100 complete control
[17] = Flood (flooded paddy test), 250 g ai/ha, scale 0 to 100, 0 no effect, 100 complete control
[18] = Flood, 31 g ai/ha, scale 0 to 100
[19] = Postemergence, 31 g ai/ha, 0 to 100 scale (0 no effect, 100 complete control)
[20] = Postemergence, 125 g ai/ha, 0 to 100 scale, 0 no effect, 100 complete control
[21] = Preemergence, 31 g ai/ha, 0 to 100 scale, 0 is no effect, 100 is complete control
[22] = Preemergence, 125 g ai/ha, 0 to 100 scale (0 no effect, 100 complete control)

## CCc1cc(-c2ccc(Cl)s2)nn1-c1c(O)cnn(C)c1=O [Compound 63]
[1]; [15]
  Plant response rating, Sedge, Umbrella: 0
[1]; [16]
  Plant response rating, Sedge, Umbrella: 0
[1]; [17]
  Plant response rating, Sedge, Umbrella: 0
[1]; [18]
  Plant response rating, Sedge, Umbrella: 0
[2]; [15]
  Plant response rating, Ducksalad: 0
[2]; [16]
  Plant response rating, Ducksalad: 0
[2]; [17]
  Plant response rating, Ducksalad: 0
[2]; [18]
  Plant response rating, Ducksalad: 0
[3]; [15]
  Plant response rating, Rice: 0
[3]; [16]
  Plant response rating, Rice: 0
[3]; [17]
  Plant response rating, Rice: 0
[3]; [18]
  Plant response rating, Rice: 0
[4]; [15]
  Plant response rating, Barnyardgrass: 0
[4]; [16]
  Plant response rating, Barnyardgrass: 0
[4]; [17]
  Plant response rating, Barnyardgrass: 0
[4]; [18]
  Plant response rating, Barnyardgrass: 0
[5]; [19]
  Plant response rating, Corn: 0
[5]; [20]
  Plant response rating, Corn: 30
[5]; [21]
  Plant response rating, Corn: 0
[5]; [22]
  Plant response rating, Corn: 0
[6]; [19]
  Plant response rating, Crabgrass, Large: 10
[6]; [20]
  Plant response rating, Crabgrass, Large: 10
[6]; [21]
  Plant response rating, Crabgrass, Large: 0
[6]; [22]
  Plant response rating, Crabgrass, Large: 0
[7]; [19]
  Plant response rating, Velvetleaf: 0
[7]; [20]
  Plant response rating, Velvetleaf: 0
[7]; [21]
  Plant response rating, Velvetleaf: 0
[7]; [22]
  Plant response rating, Velvetleaf: 0
[8]; [19]
  Plant response rating, Pigweed: 0
[8]; [20]
  Plant response rating, Pigweed: 0
[8]; [21]
  Plant response rating, Pigweed: 0
[8]; [22]
  Plant response rating, Pigweed: 0
[9]; [19]
  Plant response rating, Barnyardgrass: 0
[9]; [20]
  Plant response rating, Barnyardgrass: 20
[9]; [21]
  Plant response rating, Barnyardgrass: 0
[9]; [22]
  Plant response rating, Barnyardgrass: 10
[10]; [19]
  Plant response rating, Wheat: 0
[10]; [20]
  Plant response rating, Wheat: 20
[10]; [21]
  Plant response rating, Wheat: 0
[10]; [22]
  Plant response rating, Wheat: 0
[11]; [19]
  Plant response rating, Morningglory: 0
[11]; [20]
  Plant response rating, Morningglory: 0
[11]; [21]
  Plant response rating, Morningglory: 0
[11]; [22]
  Plant response rating, Morningglory: 0
[12]; [19]
  Plant response rating, Foxtail, Giant: 0
[12]; [20]
  Plant response rating, Foxtail, Giant: 60
[12]; [21]
  Plant response rating, Foxtail, Giant: 0
[12]; [22]
  Plant response rating, Foxtail, Giant: 0

## Cc1c(Br)c(-c2ccc(Br)cc2)nn1-c1c(O)cnn(C)c1=O [Compound 70]
[5]; [19]
  Plant response rating, Corn: 0
[5]; [20]
  Plant response rating, Corn: 20
[5]; [21]
  Plant response rating, Corn: 0
[5]; [22]
  Plant response rating, Corn: 0
[6]; [19]
  Plant response rating, Crabgrass, Large: 0
[6]; [20]
  Plant response rating, Crabgrass, Large: 0
[6]; [21]
  Plant response rating, Crabgrass, Large: 0
[6]; [22]
  Plant response rating, Crabgrass, Large: 0
[8]; [19]
  Plant response rating, Pigweed: 0
[8]; [20]
  Plant response rating, Pigweed: 0
[8]; [21]
  Plant response rating, Pigweed: 0
[8]; [22]
  Plant response rating, Pigweed: 0
[9]; [19]
  Plant response rating, Barnyardgrass: 0
[9]; [20]
  Plant response rating, Barnyardgrass: 50
[9]; [21]
  Plant response rating, Barnyardgrass: 0
[9]; [22]
  Plant response rating, Barnyardgrass: 0
[13]; [19]
  Plant response rating, Canarygrass: 0
[13]; [20]
  Plant response rating, Canarygrass: 0
[13]; [21]
  Plant response rating, Canarygrass: 0
[13]; [22]
  Plant response rating, Canarygrass: 0
[10]; [19]
  Plant response rating, Wheat: 0
[10]; [20]
  Plant response rating, Wheat: 0
[10]; [21]
  Plant response rating, Wheat: 0
[10]; [22]
  Plant response rating, Wheat: 0
[14]; [19]
  Plant response rating, Blackgrass: 0
[14]; [20]
  Plant response rating, Blackgrass: 10
[14]; [21]
  Plant response rating, Blackgrass: 0
[14]; [22]
  Plant response rating, Blackgrass: 0
[12]; [19]
  Plant response rating, Foxtail, Giant: 0
[12]; [20]
  Plant response rating, Foxtail, Giant: 0
[12]; [21]
  Plant response rating, Foxtail, Giant: 0
[12]; [22]
  Plant response rating, Foxtail, Giant: 0

## Cn1ncc(O)c(-c2nn(-c3ccc(C(F)(F)F)cc3)cc2Cl)c1=O [Compound 88]
[5]; [19]
  Plant response rating, Corn: 0
[5]; [20]
  Plant response rating, Corn: 50
[5]; [21]
  Plant response rating, Corn: 0
[5]; [22]
  Plant response rating, Corn: 20
[6]; [19]
  Plant response rating, Crabgrass, Large: 40
[6]; [20]
  Plant response rating, Crabgrass, Large: 90
[6]; [21]
  Plant response rating, Crabgrass, Large: 0
[6]; [22]
  Plant response rating, Crabgrass, Large: 90
[8]; [19]
  Plant response rating, Pigweed: 0
[8]; [20]
  Plant response rating, Pigweed: 0
[8]; [21]
  Plant response rating, Pigweed: 0
[8]; [22]
  Plant response rating, Pigweed: 0
[9]; [19]
  Plant response rating, Barnyardgrass: 10
[9]; [20]
  Plant response rating, Barnyardgrass: 90
[9]; [21]
  Plant response rating, Barnyardgrass: 0
[9]; [22]
  Plant response rating, Barnyardgrass: 90
[13]; [19]
  Plant response rating, Canarygrass: 30
[13]; [20]
  Plant response rating, Canarygrass: 70
[13]; [21]
  Plant response rating, Canarygrass: 0
[13]; [22]
  Plant response rating, Canarygrass: 70
[10]; [19]
  Plant response rating, Wheat: 20
[10]; [20]
  Plant response rating, Wheat: 60
[10]; [21]
  Plant response rating, Wheat: 0
[10]; [22]
  Plant response rating, Wheat: 40
[14]; [19]
  Plant response rating, Blackgrass: 10
[14]; [20]
  Plant response rating, Blackgrass: 70
[14]; [21]
  Plant response rating, Blackgrass: 40
[14]; [22]
  Plant response rating, Blackgrass: 80
[12]; [19]
  Plant response rating, Foxtail, Giant: 40
[12]; [20]
  Plant response rating, Foxtail, Giant: 90
[12]; [21]
  Plant response rating, Foxtail, Giant: 40
[12]; [22]
  Plant response rating, Foxtail, Giant: 90

## CCc1cc(-c2ccc(Br)cc2)nn1-c1c(O)c(OC)nn(C)c1=O [Compound 89]
[5]; [19]
  Plant response rating, Corn: 100
[5]; [20]
  Plant response rating, Corn: 100
[5]; [21]
  Plant response rating, Corn: 50
[5]; [22]
  Plant response rating, Corn: 70
[6]; [19]
  Plant response rating, Crabgrass, Large: 100
[6]; [20]
  Plant response rating, Crabgrass, Large: 100
[6]; [21]
  Plant response rating, Crabgrass, Large: 70
[6]; [22]
  Plant response rating, Crabgrass, Large: 100
[8]; [20]
  Plant response rating, Pigweed: 0
[8]; [21]
  Plant response rating, Pigweed: 0
[8]; [22]
  Plant response rating, Pigweed: 0
[9]; [19]
  Plant response rating, Barnyardgrass: 100
[9]; [20]
  Plant response rating, Barnyardgrass: 100
[9]; [21]
  Plant response rating, Barnyardgrass: 30
[9]; [22]
  Plant response rating, Barnyardgrass: 100
[13]; [19]
  Plant response rating, Canarygrass: 100
[13]; [20]
  Plant response rating, Canarygrass: 100
[13]; [21]
  Plant response rating, Canarygrass: 50
[13]; [22]
  Plant response rating, Canarygrass: 100
[10]; [19]
  Plant response rating, Wheat: 80
[10]; [20]
  Plant response rating, Wheat: 90
[10]; [21]
  Plant response rating, Wheat: 40
[10]; [22]
  Plant response rating, Wheat: 90
[14]; [19]
  Plant response rating, Blackgrass: 100
[14]; [20]
  Plant response rating, Blackgrass: 100
[14]; [21]
  Plant response rating, Blackgrass: 90
[14]; [22]
  Plant response rating, Blackgrass: 100
[12]; [19]
  Plant response rating, Foxtail, Giant: 100
[12]; [20]
  Plant response rating, Foxtail, Giant: 100
[12]; [21]
  Plant response rating, Foxtail, Giant: 90
[12]; [22]
  Plant response rating, Foxtail, Giant: 100
